Data set [1] concerns methicillin-resistant vancomycin-intermediate S. aureus (MR-VISA). Put plainly: Time-kill assay. Conditions: 2 μM and 4 μM. The format is cell-based. The protocol:
The bactericidal activity was assessed by the kinetics or the rate at which it affects the killing action of the compound. Briefly methicillin-resistant vancomycin-intermediate S. aureus (MR-VISA) grown in Yeast-Dextrose broth. A starting inoculum of 1.6×10^8 CFU/ml was used as initial bacterial colony count. Vancomycin and compound 7 having final concentrations of 2 μM and 4 μM were inoculated with MR-VISA suspensions having starting inocula of 1.6×10^8 CFU/ml. Bacterial suspension containing specified concentrations of the compound along with negative control (which contains only 0.9% Saline) was incubated at 37° C. with shaking. Aliquots (20 μl) were removed from the cultures at different time intervals and were serially diluted 10-fold in 0.9% saline and plated onto sterile Yeast-Dextrose agar medium. The number of viable cells was determined by plating the 10-fold serial dilution of each sample onto Yeast-dextrose agar medium. Plates were then incubated for 24 h at 37° C., CFU was counted and the total bacterial log 10 CFU/ml was determined.

The test system of data set [2] is Vancomycin-resistant E. faecium (VanA, ATCC 51559). Put plainly: MIC, micro-dilution broth, VRE (VanA). The class given is cell-based. The protocol:
(§1) All test compounds were assayed in a micro-dilution broth format. Stock solutions were made by serially diluting the compounds using autoclaved millipore water or broth media. The antibacterial activity of the compounds was determined against methicillin-sensitive S. aureus (MSSA), methicillin-resistant S. aureus (MRSA), vancomycin-intermediate-resistant S. aureus (VISA), vancomycin-sensitive E. faecium (VSE) and vancomycin-resistant E. faecium (VRE). Bacteria, to be tested, were grown for about 10 h in the suitable media, MSSA, MRSA and VISA were grown in yeast-dextrose broth (about 1 g of beef extract, about 2 g of yeast extract, about 5 g of peptone and about 5 g of NaCl in about 1000 mL of sterile distilled water (pH-7)). For solid media, about 5% agar was used along with above mentioned composition. VSE and VRE were cultured in brain heart infusion broth (Himedia). The bacterial samples were freeze dried and stored at −80° C. About 5 μL of these stocks were added to about 3 mL of the nutrient broth and the culture was grown for about 6 h at about 37° C. prior to the experiments. This 6 h grown culture gives about 10^9 cfu/mL and this was determined by spread plating method. The 6 h grown culture was diluted to give effective cell concentration of about 10^5 cfu/mL which was then used for determining MIC. Compounds were serially diluted, in sterile water (2 fold dilution is employed) in a way that the working concentration was about 10 μM for MSSA, MRSA, and VSE while for VRE and VISA it was about 100 μM. About 50 μL of these serial dilutions were added to the wells of 96 well plate followed by the addition of about 150 μL of bacterial solution. The plates were then incubated at about 37° C., 150 rpm in the incubator and O.D at 600 nm was recorded at an interval of about 10 h and 24 h using TECAN (Infinite series, M200 pro) Plate Reader. Each concentration had triplicate values and the whole experiment was done at least twice and the MIC value was determined by taking the average of triplicate. O. D. values for each concentration and plotting it against concentration. The data was then subjected to sigmoidal fitting. From the curve the MIC value was determined, as the point in the curve where the O. D. was similar to that of control having no bacteria.
(In general: Broth dilution looks for growth in wells or tubes with falling amounts of substance.)

For data set [3], the system named is Vancomycin intermediate resistant S. aureus. Put plainly: MIC, micro-dilution broth, VISA. The following applies: VISA. The class given is cell-based. As for the experimental part: as §1
Data set [4] has as its system Vancomycin-resistant E. faecalis (VanA, ATCC 51575). Put plainly: MIC, micro-dilution broth, VRE (VanB). The following applies: Enterococcus faecalis, read-out: MIC VRE (VanB). The format is cell-based.
A further data set relates to VISA. Put plainly: In-vivo time dependent whole blood assay. Set-up: species or system S. aureus. The following applies: 12 mg/kg single i.v., CD-1 mice. As for the experimental part:
The derivative 7 and vancomycin were administered in a single intravenous injection (0.2 mL saline) to normal pathogen-free, female CD-1 mice. Doses of 12 mg kg^−1 were administered to three mice per data point. At the specified time-points (0, 3, 6, 12, 24 and 48 h) mice were euthanized (using ether), blood samples were collected from the ocular puncture. 60 μL of VISA in saline (0.9% NaCl; 10^6 CFU/mL) was added to 540 μL of whole blood which was drawn from the mice and incubated at 37° C. for 3 h. After the incubation period, antibacterial activity was determined by finding the bacterial titer in the infected blood.

Data set [5] can be described thus: Acute toxicity (blood biochemistry, liver and kidney histology). The class given is in vivo, mice. Conditions: 12 mg/kg i.v. The protocol:
For the evaluation of the acute toxicity, two groups of 10 mice each received intravenous injection of compound 7 at 12 mg/kg in 0.2 ml of sterilized saline. 10 mice were sacrificed at 48 h and the rest mice at 14 days to collect blood samples for analysis of biochemical parameters such as alanine transaminase (ALT), alkaline phosphatase (ALP), urea nitrogen, creatinine, sodium ion, potassium ion and chloride ion levels. Blood samples were analyzed at Gokula Metropolis clinical laboratory, Bengaluru, India. And also to examine the adverse effects of compound 7 in tissue level, we have isolated liver and kidney organs in 10% neutral formalin. Tissues were processed by dehydration in ascending grades of ethyl alcohol, clearing in xylol, embedding in paraffin wax and prepared sections of 5 μm thickness. Then paraffin sections were stained using haematoxylin and eosin, and observed under light microscope for histological changes.

A further data set in a line: Systemic toxicity (LD50). Further details: species or system CD-1 female mice. The following applies: female, CD-1, mouse, in vivo, iv, single-dose i.v., mice. The protocol: Systemic toxicity was examined after i.v injection of compound 7 to CD-1 female mice. Each mouse was injected with a 0.2 ml of freshly prepared compound 7 solution in saline. The doses of the compound administered per group were according to OECD guidelines (OECD, 2005).

≈ marks a conversion by molar mass, not a printed value. Entries after “also recorded” stand apart in the source; their conditions may differ.

Results on one compound are retold here after patent publication US20160303184A1, “VANCOMYCIN-SUGAR CONJUGATES AND USES THEREOF” (JAWAHARLAL NEHRU CENTRE FOR ADVANCED SCIENTIFIC RESEARCH …, priority 2013, published 2016).

For orientation: MIC means the lowest concentration that inhibits growth of the organism. What is called LD50 is the dose at which mortality reaches 50%. A lower LD50 goes with a more toxic substance. Regarding `CCCCCCCCCCN[C@]1(C)C[C@H](OC2C(O)[C@@H](O)C(CO)O[C@@H]2Oc2c3cc4cc2Oc2ccc(cc2Cl)[C@@H](O)[C@@H](NC(=O)[C@@H](CC(C)C)NC)C(=O)N[C@@H](CC(N)=O)C(=O)N[C@H]4C(=O)N[C@H]2C(=O)N[C@H](C(=O)N[C@H](C(=O)NCCCNC(=O)[C@H](O)[C@@H](O)[C@H](OC4OC(CO)C(O)C(O)[C@H]4O)[C@H](O)CO)c4cc(O)cc(O)c4-c4cc2ccc4O)[C@H](O)c2ccc(c(Cl)c2)O3)OC(C)[C@@H]1O` (some centres unmarked) [Compound 7], the killing kinetics entry in data set [1] was “rapid”. Besides, in data set [2] (Enterococcus faecium, read-out: MIC VRE (VanA)), the MIC was 1 µM (≈ 1.99 µg/mL). The “fold higher activity than vancomycin” value in data set [2] (VRE (VanA phenotype)) is on record as over 700 fold. Moreover, the MIC in data set [3] (Staphylococcus aureus, read-out: MIC VISA) stood at 0.2 µM (≈ 0.397 µg/mL). The “fold more active than vancomycin” value in data set [3] was “about 65 fold”. Moreover, the MIC in data set [4] came to 1 µM (≈ 1.99 µg/mL). In the data set on VISA (blood drawn up to 24 h, VISA), the CFU/mL reduction is reported as 3 log10 CFU/mL. For the same compound, the “time after dosing up to which blood showed antibacterial activity” value in the data set on VISA (blood incubated with VISA 3 h) turned out to be 24 h. Moreover, the “acute damage to liver and kidney functions” value in data set [5] (48 h and 14 days) was “did not cause any significant acute damage; also recorded: no significant acute damage”. Also, in data set [5] (48 h post-treatment), the Chloride ion came out at 112.9 ± 1.52 mmol/L, the “Kidney Creatinine” value came out at 0.2 ± 0.133 mg/dL, the “Liver ALT” value came to 55.23 ± 5.24 U L^−1 and the Potassium ion worked out at 6.86 ± 0.81 mmol/L. In data set [5] (48 h post-treatment), the Sodium ion was 143.63 ± 1.65 mmol/L and the “Urea Nitrogen” value came out at 19.52 ± 3.25 mg/dL. In addition, in data set [5] (14 days post treatment), the Chloride ion stood at 110.85 ± 2.16 mmol/L, the “Kidney Creatinine” value was found to be 0.22 ± 0.1 mg/dL, the “Liver ALT” value came out at 53.28 ± 3.78 U L^−1 and the Potassium ion amounted to 6.75 ± 0.833 mmol/L. Further, in data set [5] (14 days post treatment), the Sodium ion came out at 143.04 ± 0.71 mmol/L and the “Urea Nitrogen” value stood at 24.46 ± 4.93 mg/dL. For the same compound, in data set [5] (compared to control), the “gross anatomical and histopathological examination of liver and kidney sections” value is on record as “no significant changes”. Also, the LD50 at 14 days in “Systemic toxicity (LD50)” was over 100 mg/kg.
